In test [1] the test system is NCI-H2228. Put plainly: Anticlonogenic activity against human NCI-H2228 cells treated every 3 days for 10 days by crystal violet staining based assay. The test is classed as functional, cell-based.
The test system of test [2] is NCI-H2228. Put plainly: Induction of apoptosis in human NCI-H2228 cells at 5 uM after 48 hrs by annexin V-FITC/propidium iodide staining-based flow cytometric method (reference value: 4.5%). The test is classed as functional. On the technique in general: In flow cytometry, cells or beads pass a laser one at a time.
Test [3] has as its system NCI-H2228. Put plainly: Induction of apoptosis in human NCI-H2228 cells at 10 uM after 48 hrs by annexin V-FITC/propidium iodide staining-based flow cytometric method (reference value: 4.5%). Type of test: functional.
Test [4] has as its system NCI-H2228. As to the kind of experiment: Induction of apoptosis in human NCI-H2228 cells after 48 hrs by annexin V-FITC/propidium iodide staining-based flow cytometric method. The test is classed as functional, cell-based.
Test [5] deals with T1, ALK tyrosine kinase receptor (Homo sapiens, UniProt Q9UM73). As to the kind of experiment: Inhibition of EML4-fused ALK autophosphorylation at Tyr1282/1283 in human NCI-H2228 cells at 2.5 to 10 uM after 48 hrs by Western blot method. The test is classed as cell-based. Background: In western blotting, separated proteins are transferred to a membrane and probed.
Target sequence in this assay (Q9UM73 19-1620 limits assumed): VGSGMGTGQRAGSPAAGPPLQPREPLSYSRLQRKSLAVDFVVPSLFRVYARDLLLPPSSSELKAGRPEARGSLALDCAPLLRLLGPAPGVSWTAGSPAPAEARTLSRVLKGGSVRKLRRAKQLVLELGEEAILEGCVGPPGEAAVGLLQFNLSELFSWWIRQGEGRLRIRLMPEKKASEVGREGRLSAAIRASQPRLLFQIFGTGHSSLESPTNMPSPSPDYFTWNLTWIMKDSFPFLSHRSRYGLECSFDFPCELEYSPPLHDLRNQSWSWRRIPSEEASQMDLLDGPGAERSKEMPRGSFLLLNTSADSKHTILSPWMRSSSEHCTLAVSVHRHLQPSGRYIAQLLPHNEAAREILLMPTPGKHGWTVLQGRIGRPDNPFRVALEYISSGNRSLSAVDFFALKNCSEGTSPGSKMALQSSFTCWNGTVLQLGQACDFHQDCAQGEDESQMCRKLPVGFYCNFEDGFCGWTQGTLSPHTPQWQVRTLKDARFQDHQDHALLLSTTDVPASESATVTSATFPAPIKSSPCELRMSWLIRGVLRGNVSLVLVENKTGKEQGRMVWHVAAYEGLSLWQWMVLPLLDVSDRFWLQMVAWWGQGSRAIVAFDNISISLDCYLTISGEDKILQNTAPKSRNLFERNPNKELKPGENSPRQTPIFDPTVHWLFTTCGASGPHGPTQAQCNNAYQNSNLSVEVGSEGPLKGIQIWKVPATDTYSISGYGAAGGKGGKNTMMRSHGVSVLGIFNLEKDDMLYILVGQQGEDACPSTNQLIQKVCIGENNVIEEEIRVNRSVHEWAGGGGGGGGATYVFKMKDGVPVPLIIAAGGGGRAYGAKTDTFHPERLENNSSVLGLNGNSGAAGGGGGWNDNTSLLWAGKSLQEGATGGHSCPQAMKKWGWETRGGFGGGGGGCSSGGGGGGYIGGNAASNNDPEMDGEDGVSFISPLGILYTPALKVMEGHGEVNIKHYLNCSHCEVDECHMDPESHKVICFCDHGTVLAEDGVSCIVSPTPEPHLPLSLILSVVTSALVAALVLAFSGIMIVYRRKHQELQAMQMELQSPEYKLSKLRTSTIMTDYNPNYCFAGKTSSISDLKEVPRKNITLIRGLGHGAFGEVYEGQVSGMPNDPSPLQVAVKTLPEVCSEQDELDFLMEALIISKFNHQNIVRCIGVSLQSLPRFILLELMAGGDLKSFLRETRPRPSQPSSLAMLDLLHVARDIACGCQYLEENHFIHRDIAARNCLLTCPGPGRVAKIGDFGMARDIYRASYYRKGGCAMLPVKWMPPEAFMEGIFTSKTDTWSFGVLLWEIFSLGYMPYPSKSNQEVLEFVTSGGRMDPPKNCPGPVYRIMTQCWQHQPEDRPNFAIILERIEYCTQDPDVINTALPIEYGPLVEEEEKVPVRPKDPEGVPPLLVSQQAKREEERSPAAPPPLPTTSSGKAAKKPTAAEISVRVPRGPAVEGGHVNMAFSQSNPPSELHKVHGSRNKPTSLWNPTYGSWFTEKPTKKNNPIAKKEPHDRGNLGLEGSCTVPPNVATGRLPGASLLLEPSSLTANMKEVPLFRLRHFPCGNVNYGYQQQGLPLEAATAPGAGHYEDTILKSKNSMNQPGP
Test [6] deals with T1, ALK tyrosine kinase receptor. Put plainly: Inhibition of EML4-fused ALK in human NCI-H2228 cells assessed as suppression of ERK1/2 phosphorylation after 48 hrs by Western blot method. The test is classed as cell-based.
Target sequence in this assay (Q9UM73 19-1620 limits assumed): as above
Test [7] has the same target. As to the kind of experiment: Inhibition of EML4-fused ALK in human NCI-H2228 cells assessed as suppression of STAT3 phosphorylation after 48 hrs by Western blot method. The test is classed as cell-based.
Target sequence in this assay (Q9UM73 19-1620 limits assumed): as above
For test [8] the target is unchanged. Put plainly: Inhibition of EML4-fused ALK in human NCI-H2228 cells assessed as suppression of AKT phosphorylation after 48 hrs by Western blot method. The test is classed as cell-based.
Target sequence in this assay (Q9UM73 19-1620 limits assumed): as above
Test [9] has the same target.
Target sequence in this assay (Q9UM73 whole entry, the tested form may be a part): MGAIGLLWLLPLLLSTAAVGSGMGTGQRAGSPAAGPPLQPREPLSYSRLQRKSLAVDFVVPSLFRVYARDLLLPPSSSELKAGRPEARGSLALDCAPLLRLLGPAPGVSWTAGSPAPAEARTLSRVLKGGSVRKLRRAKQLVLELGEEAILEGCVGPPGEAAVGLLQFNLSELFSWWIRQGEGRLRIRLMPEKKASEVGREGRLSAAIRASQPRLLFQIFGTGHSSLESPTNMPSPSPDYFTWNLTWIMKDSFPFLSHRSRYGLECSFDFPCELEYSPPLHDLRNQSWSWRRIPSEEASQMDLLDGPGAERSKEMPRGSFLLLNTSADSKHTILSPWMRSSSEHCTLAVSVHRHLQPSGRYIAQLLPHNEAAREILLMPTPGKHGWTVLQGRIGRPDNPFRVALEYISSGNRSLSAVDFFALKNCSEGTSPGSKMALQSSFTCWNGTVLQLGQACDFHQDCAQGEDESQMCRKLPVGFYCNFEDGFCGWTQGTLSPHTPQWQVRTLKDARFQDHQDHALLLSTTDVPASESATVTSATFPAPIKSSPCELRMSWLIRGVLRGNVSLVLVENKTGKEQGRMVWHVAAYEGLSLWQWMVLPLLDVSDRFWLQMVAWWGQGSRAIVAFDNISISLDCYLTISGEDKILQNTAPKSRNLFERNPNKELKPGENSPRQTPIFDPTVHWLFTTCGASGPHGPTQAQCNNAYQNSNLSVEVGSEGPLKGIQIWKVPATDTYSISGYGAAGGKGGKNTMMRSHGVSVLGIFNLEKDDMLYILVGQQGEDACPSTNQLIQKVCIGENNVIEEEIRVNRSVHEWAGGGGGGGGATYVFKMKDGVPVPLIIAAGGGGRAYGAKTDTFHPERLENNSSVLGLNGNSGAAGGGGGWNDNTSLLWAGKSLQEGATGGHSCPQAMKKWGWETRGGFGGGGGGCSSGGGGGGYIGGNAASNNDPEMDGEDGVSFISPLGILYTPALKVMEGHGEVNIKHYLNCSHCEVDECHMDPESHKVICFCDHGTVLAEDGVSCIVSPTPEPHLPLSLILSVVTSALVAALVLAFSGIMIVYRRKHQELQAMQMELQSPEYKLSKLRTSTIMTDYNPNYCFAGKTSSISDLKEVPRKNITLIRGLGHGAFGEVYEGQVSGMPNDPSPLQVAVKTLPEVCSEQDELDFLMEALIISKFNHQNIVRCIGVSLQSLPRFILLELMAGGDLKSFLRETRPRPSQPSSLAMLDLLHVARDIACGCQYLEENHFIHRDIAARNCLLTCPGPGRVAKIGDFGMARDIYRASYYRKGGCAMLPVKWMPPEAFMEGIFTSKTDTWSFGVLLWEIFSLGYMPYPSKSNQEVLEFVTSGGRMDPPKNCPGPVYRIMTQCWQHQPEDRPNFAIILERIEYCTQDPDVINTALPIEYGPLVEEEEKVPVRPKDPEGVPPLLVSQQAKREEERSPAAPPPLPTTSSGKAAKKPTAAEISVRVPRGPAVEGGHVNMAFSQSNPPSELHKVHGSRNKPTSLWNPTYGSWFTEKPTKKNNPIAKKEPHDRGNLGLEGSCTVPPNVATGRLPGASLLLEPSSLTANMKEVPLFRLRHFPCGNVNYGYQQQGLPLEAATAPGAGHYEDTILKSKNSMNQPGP
Description: Inhibition of recombinant ALK (unknown origin) after 1 hr by fluorescence assay
Test [10] has as its system NCI-H2228. As to the kind of experiment: cells. The settings on record: Homo sapiens, NCI-H2228, 72 h.
Description: (§1) Cytotoxicity against human NCI-H2228 cells harboring EML4-ALK fusion protein assessed as decrease in cell viability after 72 hrs by MTT assay
The subject of test [11] is NCI-H2228. The settings on record: Homo sapiens.
Description: as §1

Active and inactive are the calls of the source. The calls are words filed in the database; no cut-off is given here.

`CC1=C(C)C2C(=O)N3N=C(NCCCN(C)C)c4ccccc4C3=NC2S1` (stereo unspecified): the result in test [1] was Active. Further, the Activity in [2] was 23.5%; in [3] it was 37.5%; in test [4], “Dose-dependent effect”; in test [11] it was “Dose-dependent effect”. Moreover, the inhibition entry in test [5] is “Active”. Moreover, the inhibition entry in test [6], in test [7] and in test [8] was “Dose-dependent effect” in each case. This compound registered an EC50 in test [9] of 19.6 µM. The same compound registered an IC50 in test [10] of 4.11 µM.

A word on the EC50: it is the concentration at which the effect is half-maximal. A higher EC50 goes with a less potent agent. As usually defined, the IC50 is the concentration that inhibits the measured activity by half. A higher IC50 goes with weaker potency in that assay.

These data come from ChEMBL document CHEMBL4261555, “Identification of a potent kinase inhibitor targeting EML4-ALK fusion protein in non-small cell lung cancer” (Medchemcomm, 2017).
